Source: US10499642B2, “Isoxazoline-substituted benzamides and analogues as insecticides” (SYNGENTA PARTICIPATIONS AG, priority 2015, dated 2019)

Tests used:
Type in all cases: in vivo
[1] = test system: Spodoptera littoralis; assay: Spodoptera littoralis (Egyptian cotton leaf worm) cotton leaf disc test; conditions: foliar, 72 h, read-out: control (at least one of mortality, anti-feedant effect, and growth inhibition)
In short: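 Five first-instar larvae per disc were placed on dried, sprayed cotton leaf discs held on agar. Test solutions were aqueous, made from 10′000 ppm DMSO stocks. At day 3, control was counted when mortality, feeding deterrence or growth inhibition exceeded the untreated discs.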

[2] = test system: Plutella xylostella; assay: Plutella xylostella (diamond back moth) artificial diet test; conditions: 120 h, read-out: effect in at least one of the two categories (mortality or growth inhibition)
In short: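 At a 200 ppm rate, test solutions were applied to artificial diet and allowed to dry before second-instar larvae were added. Five days later, larval mortality and growth inhibition were rated against untreated samples.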

[3] = test system: Diabrotica Balteata; assay: Diabrotica balteata (corn root worm) maize sprout test; conditions: 96 h, read-out: effect in at least one of the two categories (mortality or growth inhibition)
In short: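 Scoring covered both mortality and growth inhibition relative to untreated controls, 4 days post-infestation. Test solutions at 200 ppm, diluted in water from 10′000 ppm DMSO stocks, were sprayed onto agar-held maize sprouts, which after drying received 6 to 10 L2 larvae each well.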

[4] = test system: Thrips tabaci; assay: Thrips tabaci (onion thrips) sunflower leaf disc test; conditions: foliar, 144 h
Method: Thrips tabaci (Onion Thrips):
Sunflower leaf discs were placed on agar in 24-well microtiter plates and sprayed with aqueous test solutions prepared from 10′000 ppm DMSO stock solutions. After drying the leaf discs were infested with a thrips population of mixed ages. The samples were assessed for mortality 6 days after infestation.

[5] = test system: Tetranychus urticae; assay: Tetranychus urticae (two-spotted spider mite) bean leaf disc test; conditions: foliar, 192 h
Method: Tetranychus urticae (Two-Spotted Spider Mite):
Bean leaf discs on agar in 24-well microtiter plates were sprayed with aqueous test solutions prepared from 10′000 ppm DMSO stock solutions. After drying the leaf discs were infested with a mite population of mixed ages. The samples were assessed for mortality on mixed population (mobile stages) 8 days after infestation.

[6] = test system: Myzus persicae; assay: Myzus persicae (green peach aphid) sunflower leaf disc test; conditions: foliar, 144 h
Method: Myzus persicae (Green Peach Aphid):
Sunflower leaf discs were placed on agar in a 24-well microtiter plate and sprayed with test solutions at an application rate of 200 ppm. After drying, the leaf discs were infested with an aphid population of mixed ages. After an incubation period of 6 days after treatment, samples were checked for mortality. The following compounds gave at least 80% mortality of Myzus persicae: […]

Cc1cc(C2=NO[C@@](c3cc(Cl)c(F)c(Cl)c3)(C(F)(F)F)C2)ccc1C(=O)NC1CC(OCC(F)(F)C(F)(F)F)=NO1 (stereo partly drawn) [Compound A102]
≥ 80%: percent control (mortality, anti-feedant effect or growth inhibition) at 200 ppm [1] | percent effect (mortality or growth inhibition) at 200 ppm [2] | percent effect (mortality or growth inhibition) at 200 ppm [3] | mortality at 200 ppm [4] | mortality at 200 ppm [5] | mortality at 200 ppm [6]

O=C(NC1CC(Cl)=NO1)c1ccc(C2=NO[C@@](c3cc(Cl)c(Cl)c(Cl)c3)(C(F)(F)F)C2)cc1Cl (stereo partly drawn) [Compound A018, 2-chloro-N-(3-chloro-4,5-dihydroisoxazol-5-yl)-4-[(5S)-5-(3,4,5-trichlorophenyl)-5-(trifluoromethyl)-4H-isoxazol-3-yl]benzamide]
≥ 80%: percent control (mortality, anti-feedant effect or growth inhibition) at 200 ppm [1] | percent effect (mortality or growth inhibition) at 200 ppm [2] | percent effect (mortality or growth inhibition) at 200 ppm [3] | mortality at 200 ppm [4] | mortality at 200 ppm [5] | mortality at 200 ppm [6]

O=CN(C(=O)c1ccc(C2=NO[C@@](c3cc(Cl)c(Cl)c(Cl)c3)(C(F)(F)F)C2)cc1Cl)C1CC(Cl)=NO1 (stereo partly drawn) [Compound A017, 2-chloro-N-(3-chloro-4,5-dihydroisoxazol-5-yl)-N-formyl-4-[(5S)-5-(3,4,5-trichlorophenyl)-5-(trifluoromethyl)-4H-isoxazol-3-yl]benzamide]
≥ 80%: percent control (mortality, anti-feedant effect or growth inhibition) at 200 ppm [1] | percent effect (mortality or growth inhibition) at 200 ppm [2] | percent effect (mortality or growth inhibition) at 200 ppm [3] | mortality at 200 ppm [4] | mortality at 200 ppm [5] | mortality at 200 ppm [6]

COC1=NOC(NC(=O)c2ccc(C3=NO[C@@](c4cc(Cl)cc(Cl)c4)(C(F)(F)F)C3)cc2Cl)C1 (stereo partly drawn) [Compound A062]
≥ 80%: percent control (mortality, anti-feedant effect or growth inhibition) at 200 ppm [1] | percent effect (mortality or growth inhibition) at 200 ppm [2] | percent effect (mortality or growth inhibition) at 200 ppm [3] | mortality at 200 ppm [4] | mortality at 200 ppm [5] | mortality at 200 ppm [6]

CCOC1=NOC(NC(=O)c2ccc(C3=NO[C@@](c4cc(Cl)cc(Cl)c4)(C(F)(F)F)C3)cc2Cl)C1 (stereo partly drawn) [Compound A063]
≥ 80%: percent control (mortality, anti-feedant effect or growth inhibition) at 200 ppm [1] | percent effect (mortality or growth inhibition) at 200 ppm [2] | percent effect (mortality or growth inhibition) at 200 ppm [3] | mortality at 200 ppm [4] | mortality at 200 ppm [5] | mortality at 200 ppm [6]

CC1=NOC(N(C=O)C(=O)c2ccc(C3=NO[C@@](c4cc(Cl)c(Cl)c(Cl)c4)(C(F)(F)F)C3)cc2C)C1 (stereo partly drawn) [Compound A023, N-formyl-2-methyl-N-(3-methyl-4,5-dihydroisoxazol-5-yl)-4-[(5S)-5-(3,4,5-trichlorophenyl)-5-(trifluoromethyl)-4H-isoxazol-3-yl]benzamide]
≥ 80%: percent control (mortality, anti-feedant effect or growth inhibition) at 200 ppm [1] | percent effect (mortality or growth inhibition) at 200 ppm [2] | percent effect (mortality or growth inhibition) at 200 ppm [3] | mortality at 200 ppm [4] | mortality at 200 ppm [5] | mortality at 200 ppm [6]

Cc1cc(C2=NO[C@@](c3cc(Cl)c(F)c(Cl)c3)(C(F)(F)F)C2)ccc1C(=O)NC1CC(C2CC2)=NO1 (stereo partly drawn) [Compound A032, N-(3-cyclopropyl-4,5-dihydroisoxazol-5-yl)-4-[(5S)-5-(3,5-dichloro-4-fluoro-phenyl)-5-(trifluoromethyl)-4H-isoxazol-3-yl]-2-methyl-benzamide]
≥ 80%: percent control (mortality, anti-feedant effect or growth inhibition) at 200 ppm [1] | percent effect (mortality or growth inhibition) at 200 ppm [2] | percent effect (mortality or growth inhibition) at 200 ppm [3] | mortality at 200 ppm [4] | mortality at 200 ppm [5] | mortality at 200 ppm [6]

CC1=NOC(NC(=O)c2ccc(C3=NO[C@@](c4cc(Cl)c(F)c(Cl)c4)(C(F)(F)F)C3)cc2C)C1 (stereo partly drawn) [Compound A009, 4-[(5S)-5-(3,5-dichloro-4-fluoro-phenyl)-5-(trifluoromethyl)-4H-isoxazol-3-yl]-2-methyl-N-(3-methyl-4,5-dihydroisoxazol-5-yl)benzamide]
≥ 80%: percent control (mortality, anti-feedant effect or growth inhibition) at 200 ppm [1] | percent effect (mortality or growth inhibition) at 200 ppm [2] | percent effect (mortality or growth inhibition) at 200 ppm [3] | mortality at 200 ppm [4] | mortality at 200 ppm [5] | mortality at 200 ppm [6]

Cc1cc(C2=NO[C@@](c3cc(Cl)c(Cl)c(Cl)c3)(C(F)(F)F)C2)ccc1C(=O)N(C=O)C1CC(Cl)=NO1 (stereo partly drawn) [Compound A010, N-(3-chloro-4,5-dihydroisoxazol-5-yl)-N-formyl-2-methyl-4-[(5S)-5-(3,4,5-trichlorophenyl)-5-(trifluoromethyl)-4H-isoxazol-3-yl]benzamide]
≥ 80%: percent control (mortality, anti-feedant effect or growth inhibition) at 200 ppm [1] | percent effect (mortality or growth inhibition) at 200 ppm [2] | percent effect (mortality or growth inhibition) at 200 ppm [3] | mortality at 200 ppm [4] | mortality at 200 ppm [5] | mortality at 200 ppm [6]

Cc1cc(C2=NO[C@@](c3cc(Cl)c(F)c(Cl)c3)(C(F)(F)F)C2)ccc1C(=O)NC1CC(OC2CC2)=NO1 (stereo partly drawn) [Compound A078]
≥ 80%: percent control (mortality, anti-feedant effect or growth inhibition) at 200 ppm [1] | percent effect (mortality or growth inhibition) at 200 ppm [2] | percent effect (mortality or growth inhibition) at 200 ppm [3] | mortality at 200 ppm [4] | mortality at 200 ppm [5] | mortality at 200 ppm [6]

CCSC1=NOC(NC(=O)c2ccc(C3=NO[C@@](c4cc(Cl)c(Cl)c(Cl)c4)(C(F)(F)F)C3)cc2C)C1 (stereo partly drawn) [Compound A052]
≥ 80%: percent control (mortality, anti-feedant effect or growth inhibition) at 200 ppm [1] | percent effect (mortality or growth inhibition) at 200 ppm [2] | percent effect (mortality or growth inhibition) at 200 ppm [3] | mortality at 200 ppm [4] | mortality at 200 ppm [5] | mortality at 200 ppm [6]

C=C(F)COC1=NOC(NC(=O)c2ccc(C3=NO[C@@](c4cc(Cl)c(F)c(Cl)c4)(C(F)(F)F)C3)cc2C)C1 (stereo partly drawn) [Compound A081]
≥ 80%: percent control (mortality, anti-feedant effect or growth inhibition) at 200 ppm [1] | percent effect (mortality or growth inhibition) at 200 ppm [2] | percent effect (mortality or growth inhibition) at 200 ppm [3] | mortality at 200 ppm [4] | mortality at 200 ppm [5] | mortality at 200 ppm [6]

Cc1cc(C2=NO[C@@](c3cc(Cl)cc(Cl)c3)(C(F)(F)F)C2)ccc1C(=O)N[C@@H]1CC(OCC(F)(F)F)=NO1 (single isomer, unassigned) [Compound A156]
≥ 80%: percent control (mortality, anti-feedant effect or growth inhibition) at 200 ppm [1] | percent effect (mortality or growth inhibition) at 200 ppm [2] | percent effect (mortality or growth inhibition) at 200 ppm [3] | mortality at 200 ppm [4] | mortality at 200 ppm [5] | mortality at 200 ppm [6]
